Test results published in patent US20260034115A1, “YAP1 INHIBITORS” (H. LEE MOFFITT CANCER CENTER AND RESEARCH INSTITUTE, INC., priority 2021, published 2026).
Like-named read-outs stand apart in the source and are kept apart here.

Columns and labels:
Yap1:Oct4 interaction = Yap1:Oct4 interaction (Homo sapiens, UniProt P46937); assay: Yap1:Oct4 interaction (in vitro binding assay); conditions: FIG. 1
PC9 cells = assay: MTT IC50 on parental PC9 cells; format: cell-based
PC9luc-OSIMR cells = assay: MTT IC50 on PC9-Osimertinib resistant cells expressing a luciferase gene; format: cell-based
PC9luc cells = assay: MTT IC50 on PC9 cells expressing a luciferase gene; format: cell-based
PC9-OSIMR cells = assay: MTT IC50 on Osimertinib-resistant PC9 cells; format: cell-based

Sequence of Yap1:Oct4 interaction (P46937 whole entry): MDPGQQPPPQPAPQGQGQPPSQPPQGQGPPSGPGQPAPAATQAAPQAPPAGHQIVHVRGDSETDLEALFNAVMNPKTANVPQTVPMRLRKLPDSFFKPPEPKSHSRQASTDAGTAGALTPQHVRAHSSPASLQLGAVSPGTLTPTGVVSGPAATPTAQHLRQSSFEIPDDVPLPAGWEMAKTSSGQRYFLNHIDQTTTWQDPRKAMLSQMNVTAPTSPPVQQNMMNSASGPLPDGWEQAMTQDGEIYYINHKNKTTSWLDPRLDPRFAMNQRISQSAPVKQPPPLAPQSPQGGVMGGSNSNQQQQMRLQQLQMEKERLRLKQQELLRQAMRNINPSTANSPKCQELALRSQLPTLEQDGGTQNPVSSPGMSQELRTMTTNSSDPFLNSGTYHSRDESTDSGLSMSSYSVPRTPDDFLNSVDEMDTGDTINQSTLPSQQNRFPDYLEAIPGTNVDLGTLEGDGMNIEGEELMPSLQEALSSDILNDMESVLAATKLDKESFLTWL

Work on `COC(=O)[C@H](Cc1ccc(OCc2ccccc2)cc1)NC(=O)CC1CCN(CCCc2cccc(F)c2)CC1` [SR6-085] yielded an IC50 (Yap1:Oct4 interaction) of 0.75 ± 0.15 µM.

`COC(=O)[C@H](Cc1ccc(OC)cc1)NC(=O)CC1CCN(CCCc2cccc(F)c2)CC1` [SR7-067] showed an IC50 (Yap1:Oct4 interaction) of 2.56 µM, an IC50 (PC9 cells; PC9, read-out: IC50 MTT) greater than 40 µM and an IC50 (PC9luc-OSIMR cells) greater than 40 µM. It also gave an IC50 (PC9luc cells) greater than 40 µM and an IC50 (PC9-OSIMR cells; PC9-OSIMR, read-out: IC50 MTT) greater than 40 µM.

`CCOc1ccc(CCCN2CCC(CC(=O)N[C@@H](Cc3ccc(OCc4ccccc4)cc3)C(=O)OC)CC2)cc1` [SR6-087] showed an IC50 (Yap1:Oct4 interaction) of 0.51 ± 0.08 µM.

In the case of `COC(=O)[C@H](Cc1ccc(OCc2ccccc2)cc1)NC(=O)CC1CCN(CCCc2ccc(F)c(C#N)c2)CC1` [SR6-170], the IC50 (Yap1:Oct4 interaction) is reported as 0.78 ± 0.15 µM.

`COC(=O)[C@H](Cc1ccc(OCc2ccccc2)cn1)NC(=O)CC1CCN(C(=O)CCc2ccc(Cl)c(Cl)c2)CC1` [SR6-095] gave an IC50 (Yap1:Oct4 interaction) of 1.01 ± 0.26 µM.

In the case of `CCOc1ccc(CCCN2CCC(CC(=O)Nc3ccc(OCc4ccccc4)cc3)CC2)cc1` [SR7-052], the IC50 (Yap1:Oct4 interaction) is reported as 0.445 µM, the IC50 (PC9 cells; PC9, read-out: IC50 MTT) is reported as 1.23 µM and the IC50 (PC9luc-OSIMR cells) is reported as 4.03 µM. The IC50 (PC9luc cells) was 1.27 µM and the IC50 (PC9-OSIMR cells; PC9-OSIMR, read-out: IC50 MTT) was 5.47 µM.

With `COC(=O)[C@H](Cc1ccc(OCc2ccccc2)cc1)NC(=O)CC1CCN(CCCc2ccc(Cl)c(Cl)c2)CC1` [SR6-086] the IC50 (Yap1:Oct4 interaction) was 1.85 ± 0.89 µM.

`COC(=O)[C@H](Cc1cccc(OC)c1)NC(=O)CC1CCN(CCC(C)(C)C)CC1` [SR7-055] was tested, and the IC50 (Yap1:Oct4 interaction) was greater than 40 µM.

With `COC(=O)[C@H](Cn1cc(-c2ccccc2)cn1)NC(=O)CC1CCN(C(=O)CCc2cccc(F)c2)CC1` [SR6-096] the IC50 (Yap1:Oct4 interaction) was 0.87 ± 0.32 µM.

Work on `C=CC(=O)Nc1cc(Nc2nccc(-c3cn(C)c4ccccc34)n2)c(OC)cc1N(C)CCN(C)C` [Osimertinib, reference compound] yielded an IC50 (PC9 cells; Homo sapiens, PC-9, EGFR-mutant PC9 cells, read-out: IC50 for Osimertinib) of 0.016 µM, an IC50 (PC9 cells; Homo sapiens, PC-9, PC9, read-out: IC50 MTT) of 0.0162 µM and an IC50 (PC9luc-OSIMR cells) of 4.93 µM. For the same compound, the IC50 (PC9luc cells; Homo sapiens, PC-9) was 0.0161 µM, the IC50 (PC9-OSIMR cells; Homo sapiens, PC-9, Osimertinib-resistant PC9 cells, read-out: IC50) was 5.2 µM and the IC50 (PC9-OSIMR cells; Homo sapiens, PC-9, PC9-OSIMR, read-out: IC50 MTT) was 5.25 µM. The “fold reduction in sensitivity” value (PC9-OSIMR cells; Osimertinib-resistant vs parental PC9 cells) was 325 fold.

`O=C(CC1CCN(CCCc2ccc(Cl)c(Cl)c2)CC1)Nc1ccc(OCc2ccccc2)cc1` [SR7-053] gave an IC50 (Yap1:Oct4 interaction) of 0.564 µM, an IC50 (PC9 cells; PC9, read-out: IC50 MTT) of 1.16 µM and an IC50 (PC9luc-OSIMR cells) of 3.35 µM. The IC50 (PC9luc cells) was 0.865 µM and the IC50 (PC9-OSIMR cells; PC9-OSIMR, read-out: IC50 MTT) was 3.9 µM.

Compound `O=C(CC1CCN(CCCc2cccc(F)c2)CC1)Nc1ccc(OCc2ccccc2)cc1` [SR7-057] has an IC50 (Yap1:Oct4 interaction) of 0.707 µM.

Compound `COC(=O)[C@H](Cc1cccc(OC)c1)NC(=O)CC1CCN(CCCc2ccc(Cl)c(Cl)c2)CC1` [SR7-045] has an IC50 (Yap1:Oct4 interaction) of 1.45 µM.

Compound `CCOc1ccc(CCCN2CCC(CC(=O)N[C@@H](Cc3cccc(OC)c3)C(=O)OC)CC2)cc1` [SR7-042] has an IC50 (Yap1:Oct4 interaction) of 1.4 µM.

In the case of `N#Cc1ccc(CCCN2CCC(CC(=O)Nc3ccc(OCc4ccccc4)cc3)CC2)cc1` [SR7-061], the IC50 (Yap1:Oct4 interaction) is reported as 1.3 µM.
